According to the NIST ThermoML archive (doi:10.1021/acs.jced.6b00430):

Experiment: xn = mol fraction of the nth substance listed
Conditions: 100 kPa, Liquid; for mass density: Vibrating tube method; for electrical conductivity: Alternating current cell with electrodes; for viscosity: Concentric cylinders viscometry

O=[PH](O)O [phosphonic acid] + CN(C)C=O
Conditions | electrical conductivity [S/m] | mass density [kg/m3] | viscosity [mPa·s]
318.15 K, x1 = 0.421 | – | 1170.67 | –
318.15 K, x1 = 0.4479 | – | 1189.61 | –
318.15 K, x1 = 0.4707 | – | 1204.42 | –
318.15 K, x1 = 0.493 | – | 1218.59 | –
318.15 K, x1 = 0.5074 | – | 1227.51 | –
318.15 K, x1 = 0.5196 | – | 1237.92 | –
318.15 K, x1 = 0.5429 | – | 1253.45 | –
318.15 K, x1 = 0.5724 | – | 1275.06 | –
318.15 K, x1 = 0.5925 | – | 1289.1 | –
318.15 K, x1 = 0.6245 | – | 1311.81 | –
318.15 K, x1 = 0.6554 | – | 1339.01 | –
318.15 K, x1 = 0.6753 | – | 1347.93 | –
318.15 K, x1 = 0.6923 | – | 1362.29 | –
318.15 K, x1 = 0.7142 | – | 1382.56 | –
318.15 K, x1 = 0.725 | – | 1385.03 | –
318.15 K, x1 = 0.7592 | – | 1416.55 | –
318.15 K, x1 = 0.7694 | – | 1427.77 | –
318.15 K, x1 = 0.7845 | – | 1434.51 | –
328.15 K, x1 = 0.0911 | – | 962.58 | –
328.15 K, x1 = 0.1181 | 0.0815 | – | –
328.15 K, x1 = 0.1365 | – | 987.46 | –
328.15 K, x1 = 0.1798 | – | 1011.93 | –
328.15 K, x1 = 0.1829 | – | 1013.72 | –
328.15 K, x1 = 0.1973 | – | – | 1.92
328.15 K, x1 = 0.2293 | – | 1040.86 | –
328.15 K, x1 = 0.2507 | – | – | 2.88
328.15 K, x1 = 0.291 | – | 1078.19 | –
328.15 K, x1 = 0.2984 | 0.173 | – | 4.07
328.15 K, x1 = 0.3115 | – | – | 4.29
328.15 K, x1 = 0.3298 | 0.183 | 1102.77 | –
328.15 K, x1 = 0.3442 | – | 1111.65 | –
328.15 K, x1 = 0.3491 | – | – | 6.02
328.15 K, x1 = 0.3712 | – | 1129.07 | –
328.15 K, x1 = 0.3937 | – | 1143.78 | –
328.15 K, x1 = 0.3968 | 0.275 | – | 8.65
328.15 K, x1 = 0.3988 | – | – | 8.5
328.15 K, x1 = 0.4107 | – | 1155.04 | 9.62
328.15 K, x1 = 0.421 | – | 1161.92 | –
328.15 K, x1 = 0.4479 | 0.316 | 1180.89 | 12.3
328.15 K, x1 = 0.4707 | – | 1195.74 | –
328.15 K, x1 = 0.493 | – | 1211.17 | –
328.15 K, x1 = 0.4968 | – | – | 16.2
328.15 K, x1 = 0.5074 | – | 1221.28 | 16
328.15 K, x1 = 0.5196 | – | 1229.86 | –
328.15 K, x1 = 0.5429 | – | 1246.5 | –
328.15 K, x1 = 0.5503 | – | – | 22
328.15 K, x1 = 0.5724 | – | 1267.84 | –
328.15 K, x1 = 0.5761 | 0.512 | – | 24.9
328.15 K, x1 = 0.5925 | – | 1282.63 | –
328.15 K, x1 = 0.5993 | – | – | 25.5
328.15 K, x1 = 0.6245 | – | 1306.4 | –
328.15 K, x1 = 0.6261 | – | – | 29.5
328.15 K, x1 = 0.6316 | 0.71 | – | 30.1
328.15 K, x1 = 0.6478 | – | – | 32.2
328.15 K, x1 = 0.6554 | 0.802 | 1330.73 | 32
328.15 K, x1 = 0.682 | 1.07 | – | 34.4
328.15 K, x1 = 0.7142 | – | 1375.29 | 37.1
328.15 K, x1 = 0.725 | – | 1383.85 | –
328.15 K, x1 = 0.7592 | – | 1411.1 | –
328.15 K, x1 = 0.7694 | 1.77 | 1419.7 | 39.8
328.15 K, x1 = 0.7832 | 1.91 | – | 40.5
328.15 K, x1 = 0.7845 | – | 1430.74 | –
338.15 K, x1 = 0.2984 | 0.212 | – | –
338.15 K, x1 = 0.3298 | 0.226 | – | –
338.15 K, x1 = 0.3968 | 0.351 | – | –
338.15 K, x1 = 0.4479 | 0.356 | – | –
338.15 K, x1 = 0.5761 | 0.642 | – | –
338.15 K, x1 = 0.6316 | 0.891 | – | –
